This note sets out measurements from patent US20200399250A1, “Pyrimidine Derivatives as Tropomyosin Receptor Kinase A (TRKA) Inhibitors” (BIOMED X GMBH, priority 2017, published 2020).

“And” between values parts separate entries of the source, which are not always exact repeats. Equal entries are not always repeated. “Also recorded” adds a separate entry of the source.

In series [1] the test system is panel of 97 kinases. The experiment in a line: Selectivity profiling, scanEDGE kinase panel (KINOMEscan). It counts as binding. As to conditions: 100 nM, cut-off <35% ctrl. The protocol:
Selectivity profiling was done over a panel of 97 kinases at 100 nM concentration (scanEDGE assay panel from Discover X, which also uses the KINOMEscan technology, whereat KIT(D816V) and KIT (V559D, T6701) were replaced by TrkB and TrkC). […] The employed profiling panel consisted of the following kinases: ABL1(T3151)-phosphorylated, ABL1-nonphosphorylated, ABL1-phosphorylated, ACVR1B, ADCK3, AKT1, AKT2, ALK, AURKA, AURKB, AXL, BMPR2, BRAF, BRAF (V600E), BTK, CDK11, CDK2, CDK3, CDK7, CDK9, CHEK1, CSF1R, CSNK1D, CSNK1G2, DCAMKL1, DYRK1B, EGFR, EGFR (L858R), EPHA2, ERBB2, ERBB4, ERK1, FAK, FGFR2, FGFR3, FLT3, GSK3B, IGF1R, IKK-alpha, IKK-beta, INSR, JAK2 (JH1domain-catalytic), JAK3 (JH1domain-catalytic), JNK1, JNK2, JNK3, KIT, LKB1, MAP3K4, MAPKAPK2, MARK3, MEK1, MEK2, MET, MKNK1, MKNK2, MLK1, p38-alpha, p38-beta, PAK1, PAK2, PAK4, PCTK1, PDGFRA, PDGFRB, PDPK1, PIK3C2B, PIK3CA, PIK3CG, PIM1, PIM2, PIM3, PKAC-alpha, PLK1, PLK3, PLK4, PRKCE, RAF1, RET, RIOK2, ROCK2, RSK2 (Kin. Dom. 1-N-terminal), SNARK, SRC, SRPK3, TGFBR1, TIE2, TRKA, TRKB, TRKC, TSSK1B, TYK2 (JH1domain-catalytic), ULK2, VEGFR2, YANK3, ZAP70

A short description of series [2]: Plasma concentration of compound a1 after i.v. injection in mice (LC-MS-MS). As to conditions: for Plasma Conc. of Compound a1: 1 hour, single animal; for concentration at 1 h: female, C57Bl/6, mouse, plasma, intravenous. It counts as in vivo, C57Bl/6 mice. The protocol:
Compound a1 was synthesized under contract by the company Enamine Ltd. according to Example 1. Dimethylsulfoxide (DMSO) from J. T. Baker (Germany), Cremophor EL (Polyoxyethyleneglycerol triricinoleate 35 castor oil) from BASF (Germany), and Saline solution 0.9% from B. Braun (Germany) were used in this study. Two types of formulations were prepared: a formulation with a high dose of compound a1 (9 mM) and a formulation with a low dose of compound a1 (1.8 mM); c.f. Tables 5 and 6. First, a 100 mM stock solution of compound a1 in DMSO was prepared by dissolving 18.46 mg of compound a1 (molecular weight of 461.56 g/mol) in 400 μl DMSO at room temperature. The formulation with the high dose of a1 was prepared using 9% a1-DMSO stock solution, 10% Cremophor EL, and 81% saline. The formulation with the low dose of a1 contained 1.8% a1-DMSO stock solution, 5% Cremophor EL, and 93.2% saline; c.f. FIG. 2.
Experiments were carried out in accordance with the EU Directive 86/609/EEC on the protection of animals used for scientific purposes. Female adult C57Bl/6 mice (6-8 weeks old, body weight 20 g) were treated with 5 mg/kg (low dose) and 25 mg/kg (high dose) compound a1 or with vehicle (formulations without compound a1) or with saline by intravenous (i.v.) injections for 1 hour using a 1 ml syringe (29-G, Terumo); c.f. Table 6. After injection, the mice were returned to their home cages, and after 1 hour, the mice were anaesthetized with isoflurane. Terminal blood samples were collected using a 1 ml syringe (20-G needle, B. Braun). The blood was immediately transferred into a 1.3 ml heparin-coated tube (Sarstedt). Plasma was collected by centrifugation at 1500 g for 15 minutes. The supernatant was placed in a 1.5 ml tube on dry ice and stored at −20° C.
The quantification of compound a1 in murine plasma samples was performed via liquid chromatography tandem mass spectrometry (LC-MS-MS).

In series [3] the target is T1, AurA (Homo sapiens, UniProt O14965).
T1 sequence (O14965 1-403): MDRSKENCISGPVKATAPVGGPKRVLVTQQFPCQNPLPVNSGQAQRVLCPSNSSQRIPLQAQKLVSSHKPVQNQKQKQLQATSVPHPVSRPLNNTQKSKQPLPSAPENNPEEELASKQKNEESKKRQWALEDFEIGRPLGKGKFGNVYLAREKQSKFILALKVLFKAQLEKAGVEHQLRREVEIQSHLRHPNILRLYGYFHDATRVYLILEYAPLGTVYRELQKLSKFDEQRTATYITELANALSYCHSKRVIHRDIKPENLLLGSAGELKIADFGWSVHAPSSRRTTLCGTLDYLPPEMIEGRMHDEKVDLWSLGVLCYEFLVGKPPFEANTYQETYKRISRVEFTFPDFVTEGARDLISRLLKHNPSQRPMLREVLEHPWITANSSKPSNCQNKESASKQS
The experiment in a line: KINOMEscan primary screen against AurA. The series is classed as binding. The settings on record: % of control. The method, then:
Compounds were initially tested in a primary screen against TrkA (at 10 and 100 nM) and AurA (at 100 nM and 1 μM) using the KINOMEscan technology from DiscoverX Corporation, Fremont, Calif., USA (https://www.discoverx.com/services/drug-discovery-development-services/kinase-profiling/kinomescan).

With `CN1CCN(c2cc(Nc3cc(-c4cccc(F)c4)[nH]n3)nc(Sc3ccccc3)n2)CC1` [a1, N-[5-(3-fluorophenyl)-1H-pyrazol-3-yl]-6-(4-methylpiperazin-1-yl)-2-(phenylsulfanyl)pyrimidin-4-amine], the “# Hits” value in series [1] (N = 92 non-mutant kinases) came out at 7. Moreover, the “List of inhibited kinases” value in series [1] is “TrkA, TrkB, TrkC, FLT3, KIT,; also recorded: PDGFRb, RET”. In addition, the “Selectivity Score” value in series [1] (inhibited kinases/tested kinases) was 0.08 and 0.076. Besides, the “Plasma Conc. of Compound a1” value in series [2] (a1_high formulation, 25 mg/kg i.v., 25 mg/kg) is 805 nM and 920 nM; in series [2] (a1_low formulation, 5 mg/kg i.v., 5 mg/kg), 272 nM and 407 nM. Besides, the concentration at 1 h is 340 nM in series [2] (5 mg/kg (low dose) i.v.) and 863 nM in series [2] (25 mg/kg (high dose) i.v.). In series [3] (100 nM compound), the “% Ctrl. AurA @100 nM” value worked out at 97 % Ctrl. Further, the “% Ctrl. AurA @1 μM” value in series [3] (1 μM compound) is listed as 92 % Ctrl.
